In one assay the target is T1, human A1 AR (Homo sapiens, UniProt P30542).
T1 sequence (P30542 1-326): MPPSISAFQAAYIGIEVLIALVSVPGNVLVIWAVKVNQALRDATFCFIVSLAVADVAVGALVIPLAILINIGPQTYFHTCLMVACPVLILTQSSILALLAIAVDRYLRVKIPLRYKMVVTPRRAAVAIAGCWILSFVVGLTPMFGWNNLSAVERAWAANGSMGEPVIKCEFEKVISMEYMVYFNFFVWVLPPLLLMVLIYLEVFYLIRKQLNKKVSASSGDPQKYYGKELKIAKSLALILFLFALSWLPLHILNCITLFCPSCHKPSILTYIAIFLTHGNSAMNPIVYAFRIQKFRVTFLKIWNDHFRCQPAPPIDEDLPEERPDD
The assay can be described thus: Radioligand competition binding (125I-ABA) to human A1 AR in CHO K1 cell membranes. As to conditions: for Ki: Ki from competition binding, 125I-ABA, CHO K1 cell membranes; for A1/A2A: selectivity ratio A1 over A2A. (In general: Loss of bound radioactivity is the signal in a displacement assay; it reports binding, not function.)

Assay [1] concerns the target recombinant human A2A receptors (Homo sapiens, UniProt P29274). The assay can be described thus: Radioligand competition binding to recombinant human A2A receptors in Sf9 cell membranes.
Experimental: (§1) Sf9 cells were cultured in Grace's medium supplemented with 10% fetal bovine serum, 2.5 μg/ml amphotericin B and 50 μg/ml gentamycin in an atmosphere of 50% N2/50% O2. […] Infected cells were harvested 3 days post-infection and washed twice in insect PBS (PBS pH 6.3). Cells were then resuspended in lysis buffer (20 mM HEPES pH 7.5, 150 mM NaCl, 3 mM MgCl2, 1 mM β-mercaptoethanol (BME), 5 μg/mL leupeptin, 5 μg/mL pepstatin A, 1 μg/mL aprotinin, and 0.1 mM PMSF) and snap frozen for storage at −80° C. Cells were thawed on ice, brought to 30 mL total volume in lysis buffer, and burst by N2 cavitation (600 psi for 20 minutes). A low-speed centrifugation was performed to remove any unlysed cells (1000×g for 10 minutes), followed by a high-speed centrifugation (17,000×g for 30 minutes). The pellet from the final centrifugation was homogenized in buffer containing 20 mM HEPES pH 8, 100 mM NaCl, 1% glycerol, 2 μg/mL leupeptin, 2 μg/mL pepstatin A, 2 μg/mL Aprotinin, 0.1 mM PMSF, and 10 μM GDP using a small glass homogenizer followed by passage through a 26 gauge needle. Membranes were aliquoted, snap frozen in liquid N2, and stored at −80° C.
(§2) Binding experiments were performed in triplicate with 5 μg (A2A) or 25 μg (A1 and A3) membrane protein in a total volume of 0.1 mL HE buffer (20 mM HEPES and 1 mM EDTA) with 1 U/mL adenosine deaminase and 5 mM MgCl2 with or without 50 μM GTPγS. Membranes were incubated with radioligands at room temperature for three hours (for agonists) or two hours (for antagonists) in Millipore Multiscreene® 96-well GF/C filter plates and assays were terminated by rapid filtration on a cell harvester (Brandel, Gaithersburg, Md.) followed by 4×150 μl washes over 30 seconds with ice cold 10 mM Tris-HCl, pH 7.4, 10 mM MgCl2.
The target in another assay is T2, A3 AR (Homo sapiens, UniProt P0DMS8).
T2 sequence (P0DMS8 1-318): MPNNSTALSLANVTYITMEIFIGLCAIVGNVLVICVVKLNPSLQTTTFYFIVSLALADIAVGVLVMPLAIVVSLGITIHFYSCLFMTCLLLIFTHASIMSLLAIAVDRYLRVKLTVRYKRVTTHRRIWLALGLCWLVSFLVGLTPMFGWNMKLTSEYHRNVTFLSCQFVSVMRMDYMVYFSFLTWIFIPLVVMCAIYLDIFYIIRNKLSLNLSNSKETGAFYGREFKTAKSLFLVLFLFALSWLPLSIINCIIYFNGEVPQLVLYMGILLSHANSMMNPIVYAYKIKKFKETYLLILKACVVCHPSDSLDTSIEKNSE
The assay can be described thus: Radioligand competition binding (125I-ABA) to human A3 AR in HEK 293 cell membranes. As to conditions: for Ki: Ki from competition binding, 125I-ABA, HEK 293 cell membranes; for A3/A2A: selectivity ratio A3 over A2A.

In the next assay the test system is human neutrophils. The assay can be described thus: Human neutrophil oxidative activity, luminol-enhanced chemiluminescence. It counts as cell-based. The protocol: Chemiluminescence Methods: Lumninol enhanced chemiluminescence, a measure of neutrophil oxidative activity, is dependent upon both superoxide production and mobilization of the granule enzyme myeloperoxidase. The light is emitted from unstable high-energy oxygen species such as hypochlorous acid and singlet oxygen generated by activated neutrophils.
The plate was incubated 5 min (37 C) and then fMLP (50 l in HA; final concentration […]) was added to all wells.
Data are presented as peak chemiluminescence as percent of activity in the absence of an adenosine agonist. The EC50 was determined using PRISM software. All compounds were tested with PMNs from three separate donors.
Lummol-enhanced chemiluminescence, a measure of neutrophil oxidative activity, is dependent upon both superoxide production and mobilization of the lysosomal granule enzyme myeloperoxidase. The light is emitted from unstable high-energy oxygen species generated by activated neutrophils. Purified neutrophils (5-10×10^5/ml) were incubated in Hanks balanced salt solution containing 0.1% human serum albumin (1 ml) with the tested A2A agonist with or without rolipram and with or without tumor necrosis factor-alpha (1 U/ml) for 30 minutes at 37° C. in a shaking water bath. […] Chemiluminescence is reported as relative peak light emitted (=height of the curve) compared to samples with tumor necrosis factor-alpha and without agonist or rolipram.

Where [2] appears, read: human neutrophil experiment w/Rolipram.
[3] abbreviates: human neutrophil experiment w/o Rolipram.
[4] abbreviates: A2A ± SEM, Ki from competition binding, Sf9 cell membranes.
Setting [5] is: Homo sapiens, Neutrophil, human neutrophil experiment w/o Rolipram, read-out: PMN oxid (-log EC50) (converted).
[6] abbreviates: human neutrophil experiment w/o Rolipram, read-out: PMN oxid (-log EC50) (converted).

Where two headings read alike, the source gives them in different places.

Chain of recombinant human A2A receptors (P29274 whole entry): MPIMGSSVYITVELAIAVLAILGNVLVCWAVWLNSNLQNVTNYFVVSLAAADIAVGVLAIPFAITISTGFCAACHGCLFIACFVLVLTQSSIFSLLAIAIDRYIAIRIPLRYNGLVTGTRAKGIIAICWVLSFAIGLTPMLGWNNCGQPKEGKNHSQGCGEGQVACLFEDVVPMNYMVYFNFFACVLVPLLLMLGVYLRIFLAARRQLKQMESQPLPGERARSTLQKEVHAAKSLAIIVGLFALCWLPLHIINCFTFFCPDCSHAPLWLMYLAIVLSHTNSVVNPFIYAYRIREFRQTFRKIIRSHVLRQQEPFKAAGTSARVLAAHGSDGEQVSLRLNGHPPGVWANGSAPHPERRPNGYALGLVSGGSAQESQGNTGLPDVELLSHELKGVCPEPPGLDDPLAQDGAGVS
Experimental for A3 AR: as §1, §2
Experimental for human A1 AR: as §1, §2

As to `COC(=O)C1CCC(CC#Cc2nc(N)c3ncn(C4OC(CO)C(O)C4O)c3n2)CC1` (stereo not shown) [JR-2145], the Ki at human A1 AR (read-out: A1 ± SEM) is 0.0283 ± 0.0073 µM; in assay [1] (read-out: A2A ± SEM, Ki from competition binding, Sf9 cell membranes), 0.0007 ± 0.00016 µM; on A3 AR (read-out: A3 ± SEM), 0.101 ± 0.022 µM. The A1/A2A at human A1 AR came to 42.2. Besides, at A3 AR, the A3/A2A turned out to be 150.7. Besides, the “PMN oxid + roli (-log EC50)” value in the assay on human neutrophils (setting [2]) is given as 8.57. Also, the “PMN oxid (-log EC50)” value in the assay with human neutrophils (setting [3]) amounted to 7.19.
In general, EC50 refers to the concentration giving half of the maximal effect. On to `CCNC(=O)[C@H]1O[C@@H](n2cnc3c(N)nc(C#CC[C@H]4CC[C@H](COC(=O)OC)CC4)nc32)C(O)C1O` (stereo partly drawn) [ATL214, N-Ethyl 2-{3-[trans-4-(methoxycarbonyloxymethyl)-cyclohexyl]-1-propyn-1-yl}adenosine-5′-uronamide], for which the figures for the Ki (on human A1 AR (A1 ± SEM); in assay [1] (setting [4]); on A3 AR (A3 ± SEM)) were 0.1 µM, 0.0008 µM and 0.1 µM, respectively. On human A1 AR, the A1/A2A is on record as 125. Besides, the A3/A2A on A3 AR worked out at 125. Also, the EC50 with human neutrophils (setting [5]) is 0.002 µM.
As for `CCNC(=O)[C@H]1O[C@@H](n2cnc3c(N)nc(C#CCN4CCCCC4C(=O)OC)nc32)C(O)C1O` (stereo partly shown) [JR-3253, 1-{3-[6-Amino-9-(5-ethylcarbamoyl-3,4-dihydroxytetrahydrofuran-2-yl)-9H-purin-2-yl]-prop-2-ynyl}-piperidine-2-carboxylic acid methyl ester], the Ki stood at 0.0138 ± 0.0005 µM on human A1 AR (A1 ± SEM), 0.00329 ± 0.00049 µM in assay [1] (setting [4]) and 0.0313 ± 0.0093 µM at A3 AR (A3 ± SEM). Further, the A1/A2A on human A1 AR is given as 4.2. In addition, the A3/A2A at A3 AR came to 9.5. Moreover, the EC50 in the assay on human neutrophils (setting [5]) is 0.0437 µM. In addition, the “PMN oxid + roli (-log EC50)” value with human neutrophils (setting [2]) was 8.42.
In the case of `CCNC(=O)[C@H]1O[C@@H](n2cnc3c(N)nc(C#CCC4CCC(C)(C(=O)OC)CC4)nc32)C(O)C1O` (single isomer, unassigned) [JR-3067B, 4-{3-[6-Amino-9-(5-ethylcarbamoyl-3,4-dihydroxytetrahydrofuran-2-yl)-9H-purin-2-yl]-prop-2-ynyl}-1-methyl-cyclohexanecarboxylic acid methyl ester], the Ki at human A1 AR (A1 ± SEM) came out at 0.121 ± 0.044 µM; in assay [1] (setting [4]) it was 0.004 ± 0.0002 µM; on A3 AR (A3 ± SEM), 0.212 ± 0.095 µM. At human A1 AR, the A1/A2A stood at 30.3. For the same molecule, on A3 AR, the A3/A2A worked out at 53.0. The “PMN oxid + roli (-log EC50)” value in the assay on human neutrophils (setting [2]) was determined as 8.2. The “PMN oxid (-log EC50)” value in the assay on human neutrophils (setting [3]) is reported as 6.83.
On to `CCNC(=O)C1CCC(CC#Cc2nc(N)c3ncn([C@@H]4O[C@H](C(=O)NCC)C(O)C4O)c3n2)CC1` (stereo in doubt) [JR-3037, 5-{6-Amino-2-[3-(4-ethylcarbamoyl-cyclohexyl)-prop-1-ynyl]-purin-9-yl}-3,4-dihydroxytetrahydrofuran-2-carboxylic acid ethylamide], for which the Ki on human A1 AR (A1 ± SEM) came to 0.113 ± 0.011 µM; in assay [1] (setting [4]) it was 0.0041 ± 0.0009 µM; at A3 AR (A3 ± SEM) it was 0.093 ± 0.021 µM. The A1/A2A on human A1 AR is 27.6. Also, at A3 AR, the A3/A2A is given as 22.7. Further, the EC50 in the assay with human neutrophils (setting [5]) was 0.0457 µM. In addition, in the assay on human neutrophils (setting [2]), the “PMN oxid + roli (-log EC50)” value came to 8.68.
Turning to `CNC(=O)[C@H]1O[C@@H](n2cnc3c(NCc4cccc(I)c4)ncnc32)[C@H](O)[C@@H]1O` [IBMECA, N^6-3-iodobenzyladenosine-5′-N-methyluronamide, reference compound], in the assay on human neutrophils (setting [2]), the “PMN oxid + roli (-log EC50)” value was found to be 8.01. In addition, the EC50 in the assay on human neutrophils (setting [6]) was 0.324 µM.
Consider `CCNC(=O)[C@H]1O[C@@H](n2cnc3c(N)nc(C#CCC4CCC(C(=O)OC)CC4)nc32)C(O)C1O` (stereo in doubt) [ATL-146e, 4-{3-[6-Amino-9-(5-ethylcarbamoyl-3,4-dihydroxytetrahydrofuran-2-yl)-9H-purin-2-yl]-prop-2-ynyl}-cyclohexanecarboxylic acid methyl ester], for which the Ki at human A1 AR (A1 ± SEM) worked out at 0.077 ± 0.012 µM; on A3 AR (A3 ± SEM), 0.045 ± 0.015 µM. At human A1 AR, the A1/A2A was determined as 154.0. Further, the A3/A2A on A3 AR was 90.0. In the assay with human neutrophils (setting [2]), the “PMN oxid + roli (-log EC50)” value came out at 9.33. Moreover, the EC50 with human neutrophils (setting [6]) was 0.00355 µM.
As for `CCNC(=O)[C@H]1O[C@@H](n2cnc3c(N)nc(NCCc4ccc(CCC(=O)O)cc4)nc32)[C@H](O)[C@@H]1O` [CGS-21680, 2-[4-(2-carboxyethyl)phenethylamino]-5′-N-ethyl-carboxamidoadenosine, reference compound], the half-maximal effective concentration (EC50) in the assay on human neutrophils (Homo sapiens, Neutrophil, human neutrophil experiment w/Rolipram, read-out: PMN oxid + roli (-log EC50) (converted)) was 0.00282 µM; with human neutrophils (setting [5]), 0.0302 µM.
For `CCNC(=O)[C@H]1O[C@@H](n2cnc3c(N)nc(C#CC[C@H]4CC[C@H](COC(=O)OCC(C)C)CC4)nc32)C(O)C1O` (stereo partly drawn) [ATL215, N-Ethyl 2-{3-[trans-4-(isobutoxyoxycarbonyloxamethyl)-cyclohexyl]-1-propyn-1-yl}adenosine-5′-uronamide], in assay [1] (setting [4]), the Ki was 0.0048 µM. Also, the EC50 in the assay on human neutrophils (setting [5]) is 0.02 µM.
Take `CNC(=O)[C@H]1O[C@@H](n2cnc3c(NCc4cccc(I)c4)nc(Cl)nc32)[C@H](O)[C@@H]1O` [CI-IBMECA, N^6-3-iodo-2-chlorobenzyladenosine-5′-N-methyluronamide, reference compound]: the EC50 in the assay on human neutrophils (setting [6]) was 45.7 µM.
For `OC[C@H]1O[C@@H](n2cnc3c(NC4CCCC4)nc(Cl)nc32)[C@H](O)[C@@H]1O` [CCPA, 2-chloro-N^6-cyclopentyladenosine, reference compound], in the assay with human neutrophils (setting [2]), the “PMN oxid + roli (-log EC50)” value is on record as 7.26. The EC50 in the assay with human neutrophils (setting [6]) is 4.27 µM.
On the same counts, the results for `CCNC(=O)[C@H]1O[C@@H](n2cnc3c(N)ncnc32)[C@H](O)[C@@H]1O` [NECA, 5′-N-ethylcarboxamidoadenosine, reference compound] are 8.95 and 0.0151 µM.
`OC[C@H]1O[C@@H](n2cnc3c(NC4CCCC4)ncnc32)[C@H](O)[C@@H]1O` [CPA, N^6-cyclopentyladenosine, reference compound]: the Ki came out at 0.0198 ± 0.0032 µM in assay [1] (A2A ± SEM) and 0.093 ± 0.007 µM at A3 AR (A3 ± SEM). In addition, in the assay with human neutrophils (setting [5]), the EC50 is 93.3 µM. In the assay with human neutrophils (setting [2]), the “PMN oxid + roli (-log EC50)” value was determined as 7.06.
As to `CCNC(=O)[C@H]1O[C@@H](n2cnc3c(N)nc(C#CC4(O)CCCC4)nc32)C(O)C1O` (stereo in doubt) [JR-3135, 5-[6-Amino-2-(1-hydroxy-cyclopentylethynyl)-purin-9-yl]-3,4-dihydroxytetrahydrofuran-2-carboxylic acid ethylamide], the Ki is 0.005 ± 0.0013 µM at human A1 AR (A1 ± SEM) and 0.0035 ± 0.0012 µM on A3 AR (A3 ± SEM). Moreover, the EC50 with human neutrophils (setting [5]) is 0.00126 µM. In addition, the “PMN oxid + roli (-log EC50)” value in the assay with human neutrophils (setting [2]) was 9.6.
As to `CCNC(=O)[C@H]1O[C@@H](n2cnc3c(N)nc(C#CC[C@H]4CC[C@H](COC(=O)OCc5ccccc5)CC4)nc32)C(O)C1O` (stereo partly drawn) [ATL216, N-Ethyl 2-{3-[trans-4-(benzoxycarbonyloxamethyl)-cyclohexyl]-1-propyn-1-yl}adenosine-5′-uronamide], in assay [1] (setting [4]), the Ki worked out at 0.0027 µM. Further, the concentration giving a half-maximal response (EC50) in the assay with human neutrophils (setting [5]) was 0.013 µM.
As for `CCNC(=O)[C@H]1O[C@@H](n2cnc3c(N)nc(C#CCN4CC5CC4CN5C(=O)OC(C)(C)C)nc32)C(O)C1O` (stereo in doubt) [JR-4015, 5-{3-[6-Amino-9-(5-ethylcarbamoyl-3,4-dihydroxytetrahydrofuran-2-yl)-9H-purin-2-yl]prop-2-ynyl}-2,5-diazabicyclo[2.2.1]heptane-2-carboxylic acid tert-butyl ester], at human A1 AR, the A1/A2A is reported as 0.0. The Ki in assay [1] was found to be 0.00425 ± 0.001 µM. Besides, on A3 AR, the A3/A2A was determined as 0.0.
